Data on 18 compounds can be found in ChEMBL document CHEMBL1201862, “PubChem BioAssay data set” (2004).

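A five-concentration, 48-hour dose response in 96-well plates underlies each endpoint, interpolated linearly between surrounding concentrations. The concentration for 50% growth inhibition is given as GI50.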 Calls of active or inactive are those of the source. No stated cut-off is given here; in the data, active = GI50 up to about 1.1 µM and inactive = higher.

Among the test systems are KM-20L2; DLD-1; SNB-78; RXF 631; LXFL 529; DMS-273; HOP-18; DMS-114; XF498.
Common to all, as to assay: NCI anticancer screen, dose series, 48 h

As for `CC1(C)CC(=O)c2c(oc3cc(O)c(O)cc23)C1`, the GI50 is 33.7 µM (inactive) in the assay with KM-20L2; 22.9 µM (inactive) with DLD-1; 46.9 µM (inactive) in the assay on SNB-78; 26.3 µM (inactive) in the assay with RXF 631; 24.7 µM (inactive) in the assay with LXFL 529; 28.6 µM (inactive) with DMS-273. For the same compound, the GI50 in the assay on HOP-18 is 40.1 µM (inactive); with DMS-114, 13.2 µM (inactive).

On to `COc1cc2c(c(OC)c1OC)-c1ccc(SC)c(=O)cc1C(NC(=O)c1ccccc1)CC2` (stereo unspecified), for which the GI50 in the assay on KM-20L2 is < 0.01 µM (active); in the assay with DLD-1 it was < 0.01 µM (active); in the assay with SNB-78 it was < 0.01 µM (active); with LXFL 529, < 0.01 µM (active); in the assay on DMS-273, < 0.01 µM (active); in the assay with HOP-18 it was 77.1 µM (inactive). The GI50 in the assay with XF498 was < 0.0601 µM (active).

Regarding `N#Cc1ccccc1NC(=O)C(=O)C1NC(=S)NC1=O` (stereo unspecified), the GI50 in the assay with KM-20L2 is > 100 µM (inactive); in the assay on DLD-1 it was > 100 µM (inactive); in the assay on LXFL 529, > 100 µM (inactive); with HOP-18, 46.6 µM (inactive); in the assay with XF498, > 100 µM (inactive); with DMS-114 it was > 100 µM (inactive).

Consider `CC1=C(c2cc(C(=O)Nc3cc(C)ccc3C)nc(N)n2)Sc2ccccc2N1`, for which the GI50 with KM-20L2, with DLD-1, in the assay with SNB-78, in the assay on RXF 631, in the assay with LXFL 529 and with DMS-273 was > 100 µM (inactive) each time. For the same compound, the GI50 with HOP-18 and in the assay on DMS-114 was > 100 µM (inactive) throughout.

Turning to `C=CCc1cc(OC)c2c(c1)C(OC)CC(c1ccc(OC)c(OC)c1)O2` (stereo unspecified), the GI50 in the assay with KM-20L2, in the assay with DLD-1, with SNB-78, in the assay with RXF 631, in the assay on LXFL 529 and with DMS-273 was > 100 µM (inactive) throughout. Besides, the values for the GI50 in the assay on XF498 and in the assay with DMS-114 were > 100 µM (inactive) and 67.5 µM (inactive), respectively.

`COc1cc(/C=C2\[C@H]3c4c(c(OC)c(C)c(OC)c4OC)C[C@@H](C(=O)N2Cc2ccccc2)N3C(=O)OCC(C)C)c(OC)c(C)c1OC`: the GI50 was > 69.8 µM (inactive) in the assay with KM-20L2; > 100 µM (inactive) in the assay on DLD-1; > 100 µM (inactive) in the assay with LXFL 529; 47.1 µM (inactive) in the assay on DMS-273; > 100 µM (inactive) in the assay with HOP-18; 40.6 µM (inactive) with XF498.

Regarding `C[n+]1c(Cl)cn2c3nc4ccccc4nc3c([O-])c(C#N)c21`, the GI50 in the assay with DLD-1 is < 0.01 µM (active); in the assay with SNB-78 it was > 100 µM (inactive); in the assay on LXFL 529, > 100 µM (inactive); in the assay with DMS-273 it was > 100 µM (inactive); with HOP-18 it was > 100 µM (inactive); with XF498, > 100 µM (inactive). Moreover, in the assay on DMS-114, the GI50 was > 100 µM (inactive).

For the compound `COC1=CC(=Nc2c(Cl)cc(Cl)cc2OC(=O)c2ccc([N+](=O)[O-])cc2)C=C(OC)C1=O`, the GI50 was 17.7 µM (inactive) in the assay with KM-20L2; 12.4 µM (inactive) in the assay with DLD-1; 23.3 µM (inactive) in the assay on SNB-78; 4.51 µM (inactive) in the assay on RXF 631; 5.78 µM (inactive) with LXFL 529; 13.6 µM (inactive) with DMS-273. In addition, the GI50 was 8.39 µM (inactive) with XF498 and 3.79 µM (inactive) with DMS-114.

In the case of `CC1=NOC(=O)/C1=C/c1ccccc1O`, the GI50 in the assay with KM-20L2, in the assay with DLD-1, in the assay with SNB-78, in the assay on RXF 631, in the assay on LXFL 529 and with DMS-273 was > 100 µM (inactive) throughout. Further, the GI50 with HOP-18, with XF498 and in the assay with DMS-114 was > 100 µM (inactive) each time.

Regarding `O=C(CC1(O)C(=O)Nc2c(Cl)cc(Cl)cc21)c1ccccc1` (stereo unspecified), the GI50 in the assay with KM-20L2 was > 100 µM (inactive); in the assay on SNB-78 it was 81.3 µM (inactive); in the assay on RXF 631 it was > 100 µM (inactive); with LXFL 529 it was 50.1 µM (inactive); with DMS-273, 45.7 µM (inactive); with XF498, 47.1 µM (inactive). Further, the GI50 with DMS-114 was 39.7 µM (inactive).

Consider `CC(C)=C1CCC(CN2CCOCC2)C1=O` (stereo unspecified), for which the GI50 was 16.4 µM (inactive) in the assay on KM-20L2; 4.38 µM (inactive) in the assay with DLD-1; 9.38 µM (inactive) in the assay on SNB-78; 9.23 µM (inactive) in the assay on RXF 631; 2.38 µM (inactive) in the assay with LXFL 529; 9.35 µM (inactive) with HOP-18. In addition, the GI50 with XF498 was 12.7 µM (inactive); with DMS-114, 7.89 µM (inactive).

On to `COC(=O)Nc1nc2cc(Br)ccc2[nH]1`, for which the GI50 was 21.2 µM (inactive) in the assay with KM-20L2; 42.3 µM (inactive) with DLD-1; 42.4 µM (inactive) in the assay on SNB-78; 47.2 µM (inactive) in the assay on LXFL 529; 16 µM (inactive) in the assay with DMS-273; 64.1 µM (inactive) with HOP-18. Moreover, the results for the GI50 with XF498 and in the assay with DMS-114 were 23.6 µM (inactive) and 23.1 µM (inactive), respectively.

As to `C=CCOC(=O)C1CCC(=O)N1C(=O)C(Cl)Cl` (stereo unspecified), the GI50 in the assay on KM-20L2, in the assay on DLD-1, with SNB-78, in the assay with LXFL 529, in the assay with DMS-273 and with HOP-18 was > 100 µM (inactive) throughout. For the same compound, the GI50 is 17.7 µM (inactive) in the assay on XF498 and > 100 µM (inactive) in the assay on DMS-114.

With `COc1c(C)cc2c(C(C)C)c(O)c(O)c(C=O)c2c1O`, the GI50 was 19.7 µM (inactive) in the assay on KM-20L2; 32.1 µM (inactive) in the assay with DLD-1; 27.9 µM (inactive) in the assay with SNB-78; 24.8 µM (inactive) in the assay on LXFL 529; 23 µM (inactive) in the assay on DMS-273; 14.9 µM (inactive) with HOP-18. Moreover, the figures for the GI50 in the assay on XF498 and with DMS-114 were 39 µM (inactive) and 17.8 µM (inactive), respectively.

Regarding `Cc1ccn2c(c1)nc1nc3ccccc3nc12`, the GI50 in the assay on KM-20L2, with DLD-1, in the assay on SNB-78, with LXFL 529, in the assay with DMS-273 and with XF498 was > 100 µM (inactive) each time. For the same compound, the GI50 in the assay on DMS-114 is > 100 µM (inactive).

As to `NN/C(Cc1ccccc1)=N\NO`, the GI50 is 32.5 µM (inactive) in the assay with KM-20L2; > 100 µM (inactive) in the assay on DLD-1; 32.2 µM (inactive) with RXF 631; 55.1 µM (inactive) in the assay on LXFL 529; > 100 µM (inactive) with DMS-273; > 100 µM (inactive) in the assay on HOP-18. In addition, in the assay with DMS-114, the GI50 is 25.5 µM (inactive).

As for `CCOc1ccccc1/N=C(/NC(=O)CC)SC`, the GI50 is > 10 µM (inactive) in the assay on KM-20L2; 88.3 µM (inactive) in the assay with DLD-1; > 10 µM (inactive) with SNB-78; > 10 µM (inactive) with RXF 631; > 10 µM (inactive) in the assay on LXFL 529; > 10 µM (inactive) in the assay with DMS-273. The GI50 in the assay with HOP-18 and with DMS-114 was > 10 µM (inactive) throughout.

On to `CC[C@@H]1C[C@H]2CC3c4[nH]c5ccc(O)cc5c4CCN(C2)C31`, for which the GI50 in the assay on KM-20L2, in the assay with SNB-78, with RXF 631, with LXFL 529, with DMS-273 and in the assay with HOP-18 was > 100 µM (inactive) in each case. The GI50 in the assay with XF498 and with DMS-114 was > 100 µM (inactive) in each case.
